Data from PubChem BioAssay AID1259407 (Chemical Carcinogenesis Research Information System (CCRIS), 2018).
The source made the active and inactive calls. The rule behind the calls is not given here.

Test system: CCRIS mutagenicity, Ames/micronucleus/aberration tests
Assay: CCRIS mutagenicity studies
[1] = Test System: AMES SALMONELLA TYPHIMURIUM, Strain/Indicator: TA98, Metabolic Activation: NONE, Method: PREINCUBATION
[2] = Test System: AMES SALMONELLA TYPHIMURIUM, Strain/Indicator: TA98, Metabolic Activation: NONE, Method: STANDARD PLATE
[3] = Test System: AMES SALMONELLA TYPHIMURIUM, Strain/Indicator: TA98, Metabolic Activation: S-9, Method: STANDARD PLATE
[4] = Test System: AMES SALMONELLA TYPHIMURIUM, Strain/Indicator: TA100, Metabolic Activation: NONE, Method: PREINCUBATION
[5] = Test System: AMES SALMONELLA TYPHIMURIUM, Strain/Indicator: TA100, Metabolic Activation: NONE, Method: STANDARD PLATE
[6] = Test System: AMES SALMONELLA TYPHIMURIUM, Strain/Indicator: TA100, Metabolic Activation: S-9, Method: STANDARD PLATE
[7] = Test System: AMES SALMONELLA TYPHIMURIUM, Strain/Indicator: TA1535, Metabolic Activation: NONE, Method: STANDARD PLATE
[8] = Test System: AMES SALMONELLA TYPHIMURIUM, Strain/Indicator: TA1535, Metabolic Activation: S-9, Method: STANDARD PLATE
[9] = Test System: AMES SALMONELLA TYPHIMURIUM, Strain/Indicator: TA1537, Metabolic Activation: NONE, Method: STANDARD PLATE
[10] = Test System: AMES SALMONELLA TYPHIMURIUM, Strain/Indicator: TA1537, Metabolic Activation: S-9, Method: STANDARD PLATE
[11] = Test System: AMES SALMONELLA TYPHIMURIUM, Strain/Indicator: TA1538, Metabolic Activation: NONE, Method: STANDARD PLATE
[12] = Test System: AMES SALMONELLA TYPHIMURIUM, Strain/Indicator: TA1538, Metabolic Activation: S-9, Method: STANDARD PLATE

CCc1cccc(CC)c1N(COC)C(=O)CCl
mutagenic call (End Point: IN VITRO CHROMOSOMAL ABERRATIONS, Test System: PERIPHERAL BLOOD HUMAN LYMPHOCYTES, Metabolic Activation: NONE): inactive; negative; chromosomal aberrations not increased but chromatid-type aberrations i
mutagenic call (End Point: IN VITRO MICRONUCLEUS, Test System: HUMAN PERIPHERAL BLOOD LYMPHOCYTES, Metabolic Activation: NONE): active; positive; result at highest dose; variation among donors
mutagenic call (End Point: IN VITRO MICRONUCLEUS, Test System: HUMAN PERIPHERAL BLOOD LYMPHOCYTES, Metabolic Activation: S-9): active; positive; result at highest dose; variation among donors
mutagenic call (End Point: IN VITRO MICRONUCLEUS, Test System: PERIPHERAL BLOOD HUMAN LYMPHOCYTES, Metabolic Activation: NONE): active; positive; variation among donors
mutagenic call [1]: inactive; negative
mutagenic call [2]: inactive; negative
mutagenic call (Test System: AMES SALMONELLA TYPHIMURIUM, Strain/Indicator: TA98, Metabolic Activation: RAT, LIVER, MICROSOMES, PHENOBARBITAL, Method: PREINCUBATION): inactive; negative
mutagenic call [3]: inactive; negative
mutagenic call [4]: inactive; negative
mutagenic call [5]: inactive; negative
mutagenic call (Test System: AMES SALMONELLA TYPHIMURIUM, Strain/Indicator: TA100, Metabolic Activation: RAT OLFACTORY S-9, Method: PREINCUBATION): active; positive
mutagenic call (Test System: AMES SALMONELLA TYPHIMURIUM, Strain/Indicator: TA100, Metabolic Activation: RAT RESPIRATORY S-9, Method: PREINCUBATION): inactive; negative
mutagenic call (Test System: AMES SALMONELLA TYPHIMURIUM, Strain/Indicator: TA100, Metabolic Activation: RAT, LIVER, MICROSOMES, PHENOBARBITAL, Method: PREINCUBATION): inactive; negative
mutagenic call (Test System: AMES SALMONELLA TYPHIMURIUM, Strain/Indicator: TA100, Metabolic Activation: RAT, LIVER, S-9, Method: PREINCUBATION): active; positive
mutagenic call [6]: inactive; negative
mutagenic call [7]: inactive; negative
mutagenic call [8]: inactive; negative
mutagenic call [9]: inactive; negative
mutagenic call [10]: inactive; negative
mutagenic call [11]: active; positive
mutagenic call [12]: inactive; negative
mutagenic call (Test System: MOUSE LYMPHOMA, Strain/Indicator: 3.7.2C (TK+/TK-), Metabolic Activation: RAT OLFACTORY S-9, Method: SUSPENSION/PLATE): active; positive

O=[N+]([O-])c1cccc2c1-c1cccc3c([N+](=O)[O-])ccc-2c13
mutagenic call (Test System: AMES SALMONELLA TYPHIMURIUM, Strain/Indicator: TA97, Metabolic Activation: NONE): active; positive
mutagenic call (Test System: AMES SALMONELLA TYPHIMURIUM, Strain/Indicator: TA98(1,8-DNP6), Metabolic Activation: NONE): active; positive
mutagenic call (Test System: AMES SALMONELLA TYPHIMURIUM, Strain/Indicator: TA98(NR), Metabolic Activation: NONE): active; positive
mutagenic call (Test System: AMES SALMONELLA TYPHIMURIUM, Strain/Indicator: TA98, Metabolic Activation: NONE): active; positive
mutagenic call (Test System: AMES SALMONELLA TYPHIMURIUM, Strain/Indicator: TA100, Metabolic Activation: NONE): active; positive
mutagenic call (Test System: AMES SALMONELLA TYPHIMURIUM, Strain/Indicator: TA1535, Metabolic Activation: NONE): inactive; negative
mutagenic call (Test System: AMES SALMONELLA TYPHIMURIUM, Strain/Indicator: TA1537, Metabolic Activation: NONE): active; positive
mutagenic call (Test System: AMES SALMONELLA TYPHIMURIUM, Strain/Indicator: TA1538, Metabolic Activation: NONE): active; positive
mutagenic call (Test System: AMES SALMONELLA TYPHIMURIUM, Strain/Indicator: TA1978, Metabolic Activation: NONE): active; positive

Clc1ccc(Cl)nc1
mutagenic call (Test System: AMES SALMONELLA TYPHIMURIUM, Strain/Indicator: TA97, Metabolic Activation: NONE, Method: STANDARD PLATE): inactive; negative
mutagenic call (Test System: AMES SALMONELLA TYPHIMURIUM, Strain/Indicator: TA97, Metabolic Activation: RAT, LIVER, S-9, AROCLOR 1254, Method: STANDARD PLATE): inactive; negative
mutagenic call [2]: inactive; negative
mutagenic call (Test System: AMES SALMONELLA TYPHIMURIUM, Strain/Indicator: TA98, Metabolic Activation: RAT, LIVER, S-9, AROCLOR 1254, Method: STANDARD PLATE): inactive; negative
mutagenic call [5]: inactive; negative
mutagenic call (Test System: AMES SALMONELLA TYPHIMURIUM, Strain/Indicator: TA100, Metabolic Activation: RAT, LIVER, S-9, AROCLOR 1254, Method: STANDARD PLATE): inactive; negative
mutagenic call (Test System: AMES SALMONELLA TYPHIMURIUM, Strain/Indicator: TA102, Metabolic Activation: NONE, Method: STANDARD PLATE): inactive; negative
mutagenic call (Test System: AMES SALMONELLA TYPHIMURIUM, Strain/Indicator: TA102, Metabolic Activation: RAT, LIVER, S-9, AROCLOR 1254, Method: STANDARD PLATE): inactive; negative

CC(=O)c1cc(NC(=O)Nc2ccc(OCC(O)CNC(C)(C)C)c(C(C)=O)c2)ccc1OCC(O)CNC(C)(C)C (stereo not given)
mutagenic call [1]: inactive; negative
mutagenic call (Test System: AMES SALMONELLA TYPHIMURIUM, Strain/Indicator: TA98, Metabolic Activation: RAT, LIVER, S-9, PHENOBARBITAL AND 5,6-BENZOFLAVONE (10 OR 50 µL/PLATE), Method: PREINCUBATION): inactive; negative
mutagenic call [4]: inactive; negative
mutagenic call (Test System: AMES SALMONELLA TYPHIMURIUM, Strain/Indicator: TA100, Metabolic Activation: RAT, LIVER, S-9, PHENOBARBITAL AND 5,6-BENZOFLAVONE (10 OR 50 µL/PLATE), Method: PREINCUBATION): inactive; negative
mutagenic call (Test System: AMES SALMONELLA TYPHIMURIUM, Strain/Indicator: TA1535, Metabolic Activation: NONE, Method: PREINCUBATION): inactive; negative
mutagenic call (Test System: AMES SALMONELLA TYPHIMURIUM, Strain/Indicator: TA1537, Metabolic Activation: NONE, Method: PREINCUBATION): inactive; negative
mutagenic call (Test System: AMES SALMONELLA TYPHIMURIUM, Strain/Indicator: TA1537, Metabolic Activation: RAT, LIVER, S-9, PHENOBARBITAL AND 5,6-BENZOFLAVONE (10 OR 50 µL/PLATE), Method: PREINCUBATION): inactive; negative
mutagenic call (Test System: E. COLI, Strain/Indicator: WP2 UVRA, Metabolic Activation: NONE, Method: PREINCUBATION): inactive; negative
mutagenic call (Test System: E. COLI, Strain/Indicator: WP2 UVRA, Metabolic Activation: RAT, LIVER, S-9, PHENOBARBITAL AND 5,6-BENZOFLAVONE (10 OR 50 µL/PLATE), Method: PREINCUBATION): inactive; negative

CC(C)S(=O)(=O)Cl
mutagenic call [1]: inactive; negative
mutagenic call (Test System: AMES SALMONELLA TYPHIMURIUM, Strain/Indicator: TA98, Metabolic Activation: RAT, LIVER, S-9, PHENOBARBITAL, Method: PREINCUBATION): active; positive
mutagenic call [4]: active; positive
mutagenic call (Test System: AMES SALMONELLA TYPHIMURIUM, Strain/Indicator: TA100, Metabolic Activation: RAT, LIVER, S-9, PHENOBARBITAL, Method: PREINCUBATION): active; positive

O=C(O)[C@@H]1CS[C@H](c2ccccc2O)N1C(=O)CCS
mutagenic call [2]: inactive; negative
mutagenic call [3]: inactive; negative
mutagenic call [5]: inactive; negative
mutagenic call [6]: inactive; negative
mutagenic call [7]: inactive; negative
mutagenic call [8]: inactive; negative
mutagenic call [9]: inactive; negative
mutagenic call [10]: inactive; negative
mutagenic call [11]: inactive; negative
mutagenic call [12]: inactive; negative
mutagenic call (Test System: E. COLI, Strain/Indicator: WP2, Metabolic Activation: NONE, Method: STANDARD PLATE): inactive; negative
mutagenic call (Test System: E. COLI, Strain/Indicator: WP2 UVRA, Metabolic Activation: NONE, Method: STANDARD PLATE): inactive; negative
mutagenic call (Test System: E. COLI, Strain/Indicator: WP2 UVRA, Metabolic Activation: S-9, Method: STANDARD PLATE): inactive; negative
